Experimental data from publication PMC8406801, “Naringenin Inhibits Platelet Activation and Arterial Thrombosis Through Inhibition of Phosphoinositide 3-Kinase and Cyclic Nucleotide Signaling” (Frontiers in Pharmacology, 2021).
“And” between values parts separate entries of the source, which are not always exact repeats. Equal entries are not always repeated. Where two headings read alike, the source gives them in different places.

Key:
[1] = Cytotoxicity: LDH leakage from platelets; assay type: cell-based; settings: rat
Description: To assess the potential cytotoxicity of naringenin, lactate dehydrogenase (LDH) leakage from platelets were determined. Washed platelets were preincubated with either various concentrations of naringenin or vehicle at 37°C for 5 min and then centrifuged at 350 × g for 3 min at room temperature. The supernatant was detected by LDH assay kit (Beyotime Biotechnology, Shanghai, China). LDH leakage was expressed as percentages of the total LDH leakage in platelets completely lysed with 0.1% Triton X-100.

[2] = tested on: P-selectin exposure on washed platelets; test: ADP-stimulated P-selectin exposure (flow cytometry); assay type: cell-based, rat; settings: ADP 10 μM; for P-selectin exposure: mean ± SD, n = 3, 86.06 ± 9.05% without naringenin; for P-selectin (%): single replicates
Description: Flow cytometric assays were performed as described previously ([Wang et al., 2019]). ADP-stimulated P-selectin exposure and fibrinogen binding were determined in washed platelets. […] The platelets were immediately incubated with PE-labeled CD62P or FITC-labeled fibrinogen in the dark at room temperature for 15 min. The cells were finally fixed with 1% (v/v) paraformaldehyde prior to analysis using an Accuri C6 flow cytometer (BD Biosciences, United States).

[3] = tested on: PDE extracts prepared from rat PRP (cGMP hydrolysis); test: Phosphodiesterase activity in platelet extracts, hydrolysis of cGMP (HPLC); assay type: biochemical; settings: vehicle = 100%, single replicates
Description: The effects of naringenin on PDE activity were determined using high-performance liquid chromatography (HPLC) ([Hu et al., 2011]). Briefly, PRP was pelleted by centrifugation for 10 min at 900 × g and homogenized in PBS containing 0.1% Triton X-100 using an ultrasonic homogenizer. After centrifugation at 12,000 × g for 20 min at 4°C, the supernatant was subjected to PDE activity assay.
DMSO vehicle or different concentrations naringenin were added to assay buffer (137 mM NaCl, 2.7 mM KCl, 8.8 mM Na2HPO4, 1.5 mM KH2PO4, 1 mM CaCl2, 1 mM MgCl2, pH 7,4) containing cAMP or cGMP. The reaction was initiated by adding 30 μL PDE extracts prepared from rat PRP as described above. Some extracts were boiled for 3 min to inactivate PDE before addition. After incubation for 30 min at […], the reaction was terminated by boiling the mixture for 3 min. Subsequently, the mixture was cooled on ice followed by centrifugation at 12,000 × g for 20 min at 4°C. The supernatant was subjected cAMP or cGMP assay using HPLC. PDE activity was expressed as percentages of the hydrolysis of cAMP or cGMP.

ERK1/2 phosphorylation = test: Ex vivo immunoblotting of phospho-ERK1/2 in ADP-stimulated PRP of treated rats; design: species or system rat; settings: for p-ERK1/2 / t-ERK (Fold to Control) / p-ERK1/2 / t-ERK (raw data): ex vivo, Figure 8E
Description: Male SD rats were randomly divided into 5 groups with 6 rats in each group. […] Sixty minutes after the last sample treatment, blood was drawn from the abdominal aorta of rats into the siliconized vacutainers containing 1:9 (v/v) 3.8% sodium citrate. The collected blood was centrifuged at 100 × g for 10 min at room temperature to obtain PRP. […] The platelet counts of PRP were adjusted to 4×10^8 cells/mL using PPP. PRP was incubated for 5 min at 37°C and then stimulated by ADP (5 μM). The maximum platelet aggregation rate was determined as mentioned above.
For in vitro platelet aggregation, aliquots of washed platelets were preincubated with vehicle or various concentrations of naringenin for 5 min and stimulated with ADP (10 μmol/L) under stirring at 37°C for 5 min. For ex vivo platelet aggregation, PRP was incubated at 37°C for 5 min and stimulated with ADP (5 μmol/L) under stirring at 37 °C. The platelet aggregation was terminated by adding ethylenediaminetetraacetic acid (EDTA; 10 mM). Total protein was prepared using RIPA lysis buffer and protein content was determined by bicinchoninic acid (BCA) protein assay kit. Equal amounts of platelet proteins (30 μg) were separated on 10% SDS polyacrylamide gel electrophoresis (SDS-PAGE) and then transferred to poly vinylidene difluoride (PVDF) membranes and subjected to western blot. Blots were blocked with TBS-Tween 20 containing 5% BSA and probed with primary antibodies diluted in blocking solution at 4°C overnight followed by incubation with the corresponding HRP secondary antibodies. The protein bands were visualized using enhanced chemiluminescence (ECL).
Blood was collected and PRP was obtained after the last treatment. Platelet aggregation was induced by ADP (5 μmol/L) (A). Data are expressed as means ± SD (n = 6). After ADP stimulation, platelet proteins were then extracted and analyzed by immunoblotting using PI3Kp110β antibody (B) and phospho-specific antibodies such as Akt^Ser473 (C), Akt^Thr308 (D) and ERK1/2^Thr202/Tyr204 (E). Total level of GAPDH was measured on each sample as a loading control. The blots shown are representative of three separate experiments. The relative protein expression levels were quantified by ImageJ 1.47v software. The level of relative protein expression obtained with vehicle control was taken as 1. R represents the level of relative protein expression in resting platelets. Data are expressed as means ± SD (n = 3). *p < 0.05, **p < 0.01, ***p < 0.001 compared with the vehicle control group (Con).
To further investigate the antiplatelet mechanisms of naringenin ex vivo, several signaling molecules such as PI3Kp110β, Akt and ERK were detected. After oral administration of naringenin (200, 400, and 800 mg/kg) to rats for 7 days, rat PRP was prepared and stimulated by ADP (5 μmol/L), and platelets were lysed to determine protein phosphorylation levels using western blot.

[4] = tested on: carotid arterial thrombus; test: FeCl3-induced carotid arterial thrombus model in rats; assay type: in vivo, rat; settings: for Occlusion time: 10% FeCl3, single animals, no occlusion within 20 min recorded as 20 min
Description: To determine the effects of naringenin on thrombogenesis, a FeCl3-induced carotid arterial thrombus model was performed as reported previously with some modifications ([Eckly et al., 2011]). […] The rats were anaesthetized using 1% pentobarbital sodium salt and fixed supinely after the last administration. The left carotid artery was exposed and thrombosis was induced by applying a Whatman filter paper (5 mm × 1 mm) saturated with 10% (w/v) FeCl3 on the top of the left carotid artery for 5 min. […] Time to occlusion of the carotid artery was defined as a blood flow of 0 ml/min for 3 min. […] At the end of the experiment, the left carotid artery was dissected. A haematoxylin and eosin stain was performed on the artery.

O=C1C[C@@H](c2ccc(O)cc2)Oc2cc(O)cc(O)c21 [Naringenin]
cytotoxicity at 5 min, 100 µM ([1]; Cytotoxicity (%)): 0.99 ± 0.21% | cytotoxicity at 5 min, 200 µM ([1]; Cytotoxicity (%)): 1.16 ± 0.39% | cytotoxicity at 5 min, 400 μM ([1]; Cytotoxicity (%)): 2.11 ± 0.81% | cytotoxicity at 5 min, 800 μM ([1]; Cytotoxicity (%)): 2.5 ± 0.85% | cytotoxicity at 5 min, 400 μM ([1]; washed platelets, naringenin 400 μM, LDH leakage, Table 1, read-out: Cytotoxicity (%)): 1.94% | cytotoxicity at 5 min, 800 μM ([1]; washed platelets, naringenin 800 μM, LDH leakage, Table 1, read-out: Cytotoxicity (%)): 1.94% | P-selectin exposure ([2]; 200 μM): 58.33 ± 7.86% | P-selectin (%) ([2]; 200 μM): 50.70% and 58.70% and 65.60% | P-selectin exposure ([2]; 400 μM): 35.12 ± 11.91% | P-selectin (%) ([2]; 400 μM): 22.54% and 46.23% and 36.58% | P-selectin exposure ([2]; 800 μM): 31.56 ± 7.26% | P-selectin (%) ([2]; 800 μM): 24.10% and 32.22% and 38.35% | PDE activity (%) ([3]; 100 μM): 55.89% and 98.26% and 70.79% | PDE activity (%) ([3]; 200 μM): 55.23% and 54.30% and 66.68% | PDE activity (%) ([3]; 400 μM): 64.97% and 53.69% and 55.23% | PDE activity (%) ([3]; 800 μM): 56.89% and 50.38% and 49.55% | p-ERK1/2 / t-ERK (Fold to Control) (ERK1/2 phosphorylation; naringenin 200mg/kg): 0.4913 and 0.9007 and 0.8159 | p-ERK1/2 / t-ERK (raw data) (ERK1/2 phosphorylation; naringenin 200mg/kg): 0.4317 and 0.7915 and 0.7170 | p-ERK1/2 / t-ERK (Fold to Control) (ERK1/2 phosphorylation; naringenin 800mg/kg): 0.4112 and 0.5367 and 0.7060 | p-ERK1/2 / t-ERK (raw data) (ERK1/2 phosphorylation; naringenin 800mg/kg): 0.3613 and 0.4716 and 0.6204 | phosphorylation of ERK in rat PRP ex vivo (ERK1/2 phosphorylation; rats, oral 200, 400, and 800 mg/kg for 7 days, ADP 5 μmol/L): significantly suppressed | H&E-stained carotid artery: thrombus formation and vascular endothelial injury ([4]; naringenin pretreatment, 10% FeCl3): diminish thrombus formation and protect against vascular endothelial injury | Occlusion time ([4]; oral 200 mg/kg for 7 days, 200 mg/kg): 7.5 min and 11.3 min and 8.5 min and 8.0 min and 9.5 min and 10.3 min | Occlusion time ([4]; oral 400 mg/kg for 7 days, 400 mg/kg): 11.0 min and 10.5 min and 13.0 min and 14.0 min and 15.0 min | 10% FeCl3-thrombus formation (time to vessel occlusion) ([4]; oral 800 mg/kg for 7 days): markedly attenuated | Occlusion time ([4]; oral 800 mg/kg for 7 days, 800 mg/kg): 13.3 min and 15.3 min and 20.0 min and 18.0 min | 10% FeCl3-thrombus formation (time to vessel occlusion) ([4]; oral 200 and 400 mg/kg for 7 days): less inhibition
